Like-named read-outs stand apart in the source and are kept apart here.
Legend:
[1] = biological target: T1, human orexin 2 receptors (Homo sapiens, UniProt O43614); test: Calcium accumulation in cells (FLIPR), hOx2R; format: cell-based; conditions: cells expressing human orexin 2 receptor; inhibition of orexin A-induced calcium accumulation; Cheng and Prusoff correction
T1 sequence (O43614 1-444): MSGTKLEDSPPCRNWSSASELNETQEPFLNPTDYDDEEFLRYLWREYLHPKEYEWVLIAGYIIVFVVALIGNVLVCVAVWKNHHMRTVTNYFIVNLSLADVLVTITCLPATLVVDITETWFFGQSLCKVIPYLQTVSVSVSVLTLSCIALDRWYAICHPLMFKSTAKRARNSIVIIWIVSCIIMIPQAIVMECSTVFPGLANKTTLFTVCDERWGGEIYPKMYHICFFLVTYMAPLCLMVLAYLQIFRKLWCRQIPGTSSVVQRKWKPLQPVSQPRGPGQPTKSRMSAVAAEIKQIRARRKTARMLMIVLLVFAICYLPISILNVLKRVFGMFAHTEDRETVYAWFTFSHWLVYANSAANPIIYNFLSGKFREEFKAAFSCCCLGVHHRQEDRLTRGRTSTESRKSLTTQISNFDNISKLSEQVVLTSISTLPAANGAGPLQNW
Experimental: Cells expressing human orexin 1 or human orexin 2 receptors, were seeded at 8,000 cells/well in 384 well black-walled clear bottom, poly-D-lysine coated plates. After 24 h, the medium was removed and cells were washed once with phosphate buffered saline and serum-deprived overnight in assay buffer (130 mM NaCl, 5.4 mM KCl, 1.8 mM CaCl2, 0.8 mM MgSO4, 0.9 mM NaH2PO4, 25 mM glucose, 20 mM HEPES, pH 7.4) containing bovine serum albumin (1% w/v).
On the day of the experiment, the cells seeded in black plates were treated with assay buffer containing the Ca^2+sensitive fluorescent dye Fluo-4-AM (2 μM), and probenecid (0.1 mM). After 1 h plates were washed twice with, and resuspended in, assay buffer containing probenecid (0.1 mM) using a multi plate washer. […] Fluorescence measurements were then continued every 1 S for 120 S followed by every 4 S for 240 S.
The measurements were typically made in two sequences:
Compounds of formula I were tested usually in a concentration range from 10^−9 M to 10^−5 M. In the second round, performed one hour later (to allow for equilibration), Orexin A was tested either in the absence (calibration curves, Orexin A agonist controls) or in the presence of compounds of formula I to determine antagonism.

[2] = biological target: T2, human orexin 1 receptors (Homo sapiens, UniProt O43613); test: Radioligand binding assay ([3H]-SB649868 competition), hOx1R; conditions: competition with about 1 nM [3H]-SB649868; CHO or HEK cell membranes expressing human orexin 1 receptor
T2 sequence (O43613 1-425): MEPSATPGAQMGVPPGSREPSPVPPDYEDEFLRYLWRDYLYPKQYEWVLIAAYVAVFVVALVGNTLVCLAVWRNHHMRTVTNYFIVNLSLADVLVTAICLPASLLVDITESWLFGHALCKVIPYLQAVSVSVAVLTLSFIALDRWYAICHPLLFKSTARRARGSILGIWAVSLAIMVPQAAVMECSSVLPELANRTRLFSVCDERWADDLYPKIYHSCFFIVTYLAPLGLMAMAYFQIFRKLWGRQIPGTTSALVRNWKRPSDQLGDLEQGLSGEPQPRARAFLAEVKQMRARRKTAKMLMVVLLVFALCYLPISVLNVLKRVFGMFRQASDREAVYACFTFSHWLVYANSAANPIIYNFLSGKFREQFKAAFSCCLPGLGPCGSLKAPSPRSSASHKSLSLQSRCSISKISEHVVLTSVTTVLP
Summary of the method: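 Membranes from hOx1R-expressing cells incubated 1 h at room temperature with about 1 nM [3H]-SB649868 and test compound, in triplicate. Buffer was 10 mM HEPES pH 7.5, 0.5% BSA, 5 mM MgCl2, 1 mM CaCl2, 0.05% tween; 10 μM almorexant defined non-specific binding. Filtration then counting of bound radioactivity; values reported as Kd.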

[3] = biological target: T1, human orexin 2 receptors; test: Radioligand binding assay ([3H]-SB649868 competition), hOx2R
Summary of the method: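 Membranes were incubated 1 h at room temperature in 10 mM HEPES pH 7.5 with 0.5% BSA, 5 mM MgCl2, 1 mM CaCl2 and 0.05% Tween, with about 1 nM [3H]-SB649868 and test compounds in triplicate. Non-specific binding was defined with 10 μM almorexant, and bound radioactivity was counted.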

[4] = biological target: T2, human orexin 1 receptors; test: Calcium accumulation in cells (FLIPR), hOx1R
[5] = competition with about 1 nM [3H]-SB649868, CHO or HEK cell membranes expressing human orexin 2 receptor, read-out: binding hOx2R Kd

SMILES	Ki [1]	Kd [2]	Kd [3, 5]	Ki [4]	Kd [3]	inhibition at 10 µM ([4]; read-out: FLIPR hOx1R % inhibition value)
Cc1cc(C)nc(N2CCC3(CCCN(Cc4nn(C)nc4Br)C3=O)CC2)n1 [Example 118, 2-((5-bromo-2-methyl-2H-1,2,3-triazol-4-yl)methyl)-9-(4,6-dimethylpyrimidin-2-yl)-2,9-diazaspiro[5.5]undecan-1-one]	79 nM	2110 nM	178 nM	3580 nM		
COCc1cccc(-c2nn(C)nc2CN2CCCC3(CCN(c4nc(C)cc(C)n4)CC3)C2=O)c1 [Example 119, 9-(4,6-dimethylpyrimidin-2-yl)-2-((5-(3-(methoxymethyl)phenyl)-2-methyl-2H-1,2,3-triazol-4-yl)methyl)-2,9-diazaspiro[5.5]undecan-1-one]	3.9 nM	1330 nM		868 nM	28 nM	
COc1cccc(-c2nn(C)nc2CN2CCCC3(CCN(c4nc(C)cc(C)n4)CC3)C2=O)n1 [Example 120, 9-(4,6-dimethylpyrimidin-2-yl)-2-((5-(6-methoxypyridin-2-yl)-2-methyl-2H-1,2,3-triazol-4-yl)methyl)-2,9-diazaspiro[5.5]undecan-1-one]	32 nM	> 10000 nM	197 nM			29%
COc1cncc(-c2nn(C)nc2CN2CCCC3(CCN(c4nc(C)cc(C)n4)CC3)C2=O)c1 [Example 121, 9-(4,6-dimethylpyrimidin-2-yl)-2-((5-(5-methoxypyridin-3-yl)-2-methyl-2H-1,2,3-triazol-4-yl)methyl)-2,9 diazaspiro[5.5]undecan-1-one]	2 nM	196 nM	15 nM	315 nM		
COCc1cccc(-c2ocnc2CN2CCCC3(CCN(c4nc(C)cc(C)n4)CC3)C2=O)c1 [Example 123, 9-(4,6-dimethylpyrimidin-2-yl)-2-((5-(3-(methoxymethyl)phenyl)oxazol-4-yl)methyl)-2,9-diazaspiro[5.5]undecan-1-one]	18 nM	3240 nM	71 nM	1780 nM		
COCc1cccc(-c2oc(C)nc2CN2CCCC3(CCN(c4nc(C)cc(C)n4)CC3)C2=O)c1 [Example 124, 9-(4,6-dimethylpyrimidin-2-yl)-2-((5-(3-(methoxymethyl)phenyl)-2-methyloxazol-4-yl)methyl)-2,9 diazaspiro[5.5]undecan-1-one]	1.2 nM	368 nM	19 nM	101 nM		
